Results published in ChEMBL document CHEMBL4118093, “Identification of a Hit Series of Antileishmanial Compounds through the Use of Mixture-Based Libraries” (ACS Med Chem Lett, 2017).

Assays:
[1] = tested on: Leishmania donovani; test: Antileishmanial activity against Leishmania donovani axenic amastigotes infected in mouse J774 cells measured after 72 hrs by Draq5 staining based high content screening assay; assay type: functional, organism-based; details: J774, 72 h
[2] = Selectivity index, ratio of IC50 for mouse J774 cells to IC50 for Leishmania donovani axenic amastigotes infected in mouse J774 cells; assay type: toxicity, cell-based; details: read-out: Ratio IC50
[3] = tested on: Leishmania donovani; test: Antileishmanial activity against Leishmania donovani axenic amastigotes at 5 uM after 72 hrs by Celltiter reagent based assay relative to control; assay type: functional
[4] = tested on: J774; test: Cytotoxicity against mouse J774 cells
[5] = tested on: Leishmania donovani; test: Antileishmanial activity against Leishmania donovani axenic amastigotes at 2.5 uM after 72 hrs by Celltiter reagent based assay relative to control; assay type: functional

SMILES | IC50 [1] [µM] | selectivity ratio [2] | inhibition at 5 µM [3] [%] | IC50 [4] [µM] | inhibition at 2.5 µM [5] [%]
N=C1NC[C@H](CCCCN2C[C@@H](Cc3ccc4ccccc4c3)N(CCc3ccc(-c4ccccc4)cc3)C2=N)N1CCc1cccc(C(F)(F)F)c1 | 1.3 | 39 | 0 | 50 | 0
N=C1NC[C@H](CCCCN2C[C@@H](Cc3ccc4ccccc4c3)N(CCCCC3CCCCC3)C2=N)N1CCCCC1CCCCC1 | 0.9 | 56 | 0 | 50 | 0
CCCCCCCN1C(=N)N(CCCC[C@H]2CNC(=N)N2CCCCC2CCCCC2)C[C@H]1Cc1ccc2ccccc2c1 | 1.3 | 38 | 97 | 50 | 6
N=C1NC[C@H](CCCCN2C[C@H](CC3CCCCC3)N(CCCCC3CCCCC3)C2=N)N1CCc1cccc(C(F)(F)F)c1 | 1.3 | 14 | 94 | 26 | 0
N=C1NC[C@H](CCCCN2C[C@@H](Cc3ccc4ccccc4c3)N(CCCCC3CCCCC3)C2=N)N1CCC12CC3CC(CC(C3)C1)C2 | 2.6 | 13 | 99 | 32 | 99
N=C1NC[C@H](CCCCN2C[C@@H](Cc3ccc4ccccc4c3)N(CCc3ccc(-c4ccccc4)cc3)C2=N)N1CCC12CC3CC(CC(C3)C1)C2 | 1.7 | 25 | 0 | 41 | 0
N=C1NC[C@H](CCCCN2C[C@H](CC3CCCCC3)N(CCCCC3CCCCC3)C2=N)N1CCC12CC3CC(CC(C3)C1)C2 | > 5 | < 5 | 28 | 23 | 0
N=C1NC[C@H](CCCCN2C[C@H](CC3CCCCC3)N(CCc3ccc(-c4ccccc4)cc3)C2=N)N1CCCCC1CCCCC1 | 0.3 | 69 | 95 | 20 | 70
CCCCCCCN1C(=N)N(CCCC[C@H]2CNC(=N)N2CCC23CC4CC(CC(C4)C2)C3)C[C@@H]1CCCC | > 5 | < 6 | 94 | 32 | 96
CCCC[C@H]1CN(CCCC[C@H]2CNC(=N)N2CCc2cccc(C(F)(F)F)c2)C(=N)N1CCc1ccc(-c2ccccc2)cc1 | 0.3 | 88 to 89 | 100 | 28 | 47
N=C1NC[C@H](CCCCN2C[C@H](CC3CCCCC3)N(CCCCC3CCCCC3)C2=N)N1CCCCC1CCCCC1 | > 5 | < 5 | 95 | 24 | 77
N=C1NC[C@H](CCCCN2C[C@@H](Cc3ccc4ccccc4c3)N(CCc3ccc(-c4ccccc4)cc3)C2=N)N1CCCCC1CCCCC1 | > 5 | < 7 | 95 | 34 | 15
CCCCCCCN1C(=N)N(CCCC[C@H]2CNC(=N)N2CCc2cccc(C(F)(F)F)c2)C[C@@H]1CCCC | 0.6 | 81 | 26 | 48 | 9
CCCCCCCN1C(=N)N(CCCC[C@H]2CNC(=N)N2CCc2cccc(C(F)(F)F)c2)C[C@H]1Cc1ccc2ccccc2c1 | 3.5 | 14 | 100 | 50 | 37
CCCCCCCN1C(=N)N(CCCC[C@H]2CNC(=N)N2CCC23CC4CC(CC(C4)C2)C3)C[C@@H]1CC1CCCCC1 | 2.5 | 11 | 85 | 26 | 14
CCCCCCCN1C(=N)N(CCCC[C@H]2CNC(=N)N2CCCCC2CCCCC2)C[C@@H]1CCCC | 1.3 | 12 | 98 | 16 | 68
CCCCCCCN1C(=N)N(CCCC[C@H]2CNC(=N)N2CCc2cccc(C(F)(F)F)c2)C[C@@H]1CC1CCCCC1 | > 5 | < 10 | 6 | 50 | 0

SMILES | IC50 [1] [µM] | selectivity ratio [2] | inhibition at 5 µM [3] [%] | IC50 [4] [µM] | inhibition at 2.5 µM [5] [%]
N=C1NC[C@H](CCCCN2C[C@@H](Cc3ccc4ccccc4c3)N(CCCCC3CCCCC3)C2=N)N1CCc1cccc(C(F)(F)F)c1 | 1.8 | 28 | 75 | 50 | 6
N=C1NC[C@H](CCCCN2C[C@H](CC3CCCCC3)N(CCc3ccc(-c4ccccc4)cc3)C2=N)N1CCc1cccc(C(F)(F)F)c1 | > 5 | < 9 | 97 | 46 | 35
CCCC[C@H]1CN(CCCC[C@H]2CNC(=N)N2CCC23CC4CC(CC(C4)C2)C3)C(=N)N1CCc1ccc(-c2ccccc2)cc1 | 0.9 | 25 | 0 | 22 | 0
CCCC[C@H]1CN(CCCC[C@H]2CNC(=N)N2CCc2cccc(C(F)(F)F)c2)C(=N)N1CCCCC1CCCCC1 | 5 | 10 | 43 | 50 | 0
CCCC[C@H]1CN(CCCC[C@H]2CNC(=N)N2CCC23CC4CC(CC(C4)C2)C3)C(=N)N1CCCCC1CCCCC1 | 0.6 | 41 | 8 | 27 | 11
N=C1NC[C@H](CCCCN2C[C@H](CC3CCCCC3)N(CCc3ccc(-c4ccccc4)cc3)C2=N)N1CCC12CC3CC(CC(C3)C1)C2 | 0.9 | 20 | 57 | 17 | 14
CCCCCCCN1C(=N)N(CCCC[C@H]2CNC(=N)N2)C[C@@H]1CCCC | 1.3 | 17 | – | 22 | –
CCCCCCCN1C(=N)N(CCCC[C@H]2CNC(=N)N2CCCCC2CCCCC2)C[C@@H]1CC1CCCCC1 | 0.7 | 36 | 95 | 25 | 97
CCCCCCCN1C(=N)N(CCCC[C@H]2CNC(=N)N2CCC23CC4CC(CC(C4)C2)C3)C[C@H]1Cc1ccc2ccccc2c1 | 0.6 | 57 | 0 | 36 | 0
CCCC[C@H]1CN(CCCC[C@H]2CNC(=N)N2CCCCC2CCCCC2)C(=N)N1CCc1ccc(-c2ccccc2)cc1 | 5 | 2 | 98 | 12 | 78
CC1CCC(CN2C(=N)NC[C@@H]2CCCCN2CCNC2=N)CC1 (stereo partly specified) | 4.4 | 1 | – | 6 | –
N=C1NCCN1CCc1ccc(-c2ccccc2)cc1 | 4.8 | 3 | – | 15 | –
CCCC[C@H]1CN(CCCC[C@H]2CNC(=N)N2CCCCC2CCCCC2)C(=N)N1CCCCC1CCCCC1 | > 5 | < 3 | 99 | 15 | 71
CCCC[C@H]1CN(CCCC[C@H]2CNC(=N)N2CCC23CC4CC(CC(C4)C2)C3)C(=N)N1 | 4.2 | 3 | – | 13 | –
CCCCCCCN1CCN(CCCC[C@H]2CNC(=N)N2)C1=N | 10 | 1 | – | 13 | –
CC1CCC(CCN2C(=N)NC[C@@H]2CCCCN2CCNC2=N)CC1 (stereo partly specified) | 0.6 | 28 | – | 17 | –
CCCC[C@H]1CN(CCCC[C@H]2CNC(=N)N2)C(=N)N1CCc1ccc(-c2ccccc2)cc1 | 1.2 | 43 | – | 50 | –
